Test system: 186277-243-T-J2-PDC multi-cell spheroid viability
Test: Anticancer human tumor 186277-243-T-J2-PDC patient-derived colon adenocarcinoma cell line growth inhibition [PI3K]
Settings: for IC50: curve of first compound; for viability, T/C: stronger effect = lower value
Summary of the method: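 Stroma-containing spheroids: tumor line, pooled-donor HUVEC, hMSC. Treatments: targeted agents with PI3K inhibitors. Dosing: clinically relevant, half-log spacing, 10 microM ceiling without known Cmax. Read-out: cell viability.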

[1] = second compound 0.0316 µM, first compound 0.000316 µM
[2] = second compound 0.0316 µM, first compound 0.001 µM
[3] = second compound 0.0316 µM, first compound 0.00316 µM
[4] = second compound 0.0316 µM, first compound 0.01 µM
[5] = second compound 0.0316 µM, first compound 0.0316 µM
[6] = second compound 0.0316 µM, first compound 0.1 µM
[7] = second compound 0.1 µM, first compound 0.000316 µM
[8] = second compound 0.1 µM, first compound 0.001 µM
[9] = second compound 0.1 µM, first compound 0.00316 µM
[10] = second compound 0.1 µM, first compound 0.01 µM
[11] = second compound 0.1 µM, first compound 0.0316 µM
[12] = second compound 0.1 µM, first compound 0.1 µM
[13] = second compound 0.316 µM, first compound 0.000316 µM
[14] = second compound 0.316 µM, first compound 0.001 µM
[15] = second compound 0.316 µM, first compound 0.00316 µM
[16] = second compound 0.316 µM, first compound 0.01 µM
[17] = second compound 0.316 µM, first compound 0.0316 µM
[18] = second compound 0.316 µM, first compound 0.1 µM
[19] = second compound 1 µM, first compound 0.000316 µM
[20] = second compound 1 µM, first compound 0.001 µM
[21] = second compound 1 µM, first compound 0.00316 µM
[22] = second compound 1 µM, first compound 0.01 µM
[23] = second compound 1 µM, first compound 0.0316 µM
[24] = second compound 1 µM, first compound 0.1 µM
[25] = second compound 3.16 µM, first compound 0.000316 µM
[26] = second compound 3.16 µM, first compound 0.001 µM
[27] = second compound 3.16 µM, first compound 0.00316 µM
[28] = second compound 3.16 µM, first compound 0.01 µM
[29] = second compound 3.16 µM, first compound 0.0316 µM
[30] = second compound 3.16 µM, first compound 0.1 µM
[31] = second compound 10 µM, first compound 0.000316 µM
[32] = second compound 10 µM, first compound 0.001 µM
[33] = second compound 10 µM, first compound 0.00316 µM
[34] = second compound 10 µM, first compound 0.01 µM
[35] = second compound 10 µM, first compound 0.0316 µM
[36] = second compound 10 µM, first compound 0.1 µM
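Also: spheroids exposed to compounds for seven days before viability reading.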
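For viability, T/C in this document: 100% = DMSO vehicle control viability.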

Question: What does the source list for `CC(=O)c1c(C)c2cnc(Nc3ccc(N4CCNCC4)cn3)nc2n(C2CCCC2)c1=O` + Cc1nc(NC(=O)N2CCCC2C(N)=O)sc1-c1ccnc(C(C)(C)C(F)(F)F)c1?
Answer: IC50 (second compound 0.0316 µM): > 100 nM; IC50 (second compound 0.1 µM): > 100 nM; IC50 (second compound 0.316 µM): > 100 nM; IC50 (second compound 1 µM): > 100 nM; IC50 (second compound 3.16 µM): 19 nM; IC50 (second compound 10 µM): < 0.316 nM; viability, T/C [1]: 96.5%; viability, T/C [2]: 95%; viability, T/C [3]: 96%; viability, T/C [4]: 114%; viability, T/C [5]: 123%; viability, T/C [6]: 138%; viability, T/C [7]: 97.7%; viability, T/C [8]: 106%; viability, T/C [9]: 104%; viability, T/C [10]: 109%; viability, T/C [11]: 136%; viability, T/C [12]: 135%; viability, T/C [13]: 101%; viability, T/C [14]: 113%; viability, T/C [15]: 109%; viability, T/C [16]: 101%; viability, T/C [17]: 124%; viability, T/C [18]: 126%; viability, T/C [19]: 104%; viability, T/C [20]: 102%; viability, T/C [21]: 99.5%; viability, T/C [22]: 107%; viability, T/C [23]: 94.3%; viability, T/C [24]: 83.6%; viability, T/C [25]: 58.7%; viability, T/C [26]: 53.6%; viability, T/C [27]: 59.2%; viability, T/C [28]: 53.3%; viability, T/C [29]: 46.1%; viability, T/C [30]: 37.4%; viability, T/C [31]: 20.9%; viability, T/C [32]: 12.4%; viability, T/C [33]: 13.7%; viability, T/C [34]: 11.6%; viability, T/C [35]: 15.4%; viability, T/C [36]: 10.5%

Question: With `CC(C)n1nc(-c2ccc3oc(N)nc3c2)c2c(N)ncnc21` + Cc1nc(NC(=O)N2CCCC2C(N)=O)sc1-c1ccnc(C(C)(C)C(F)(F)F)c1 as the compound, how does the IC50 (second compound 0.0316 µM) read?
Answer: The IC50 was 53.1 nM.

Question: And the IC50 (second compound 0.1 µM)?
Answer: The IC50 was 52.6 nM.

Question: And the IC50 (second compound 0.316 µM)?
Answer: The IC50 was 38 nM.

Question: And the IC50 (second compound 1 µM)?
Answer: The IC50 was 24.5 nM.

Question: What about the IC50 (second compound 3.16 µM) of the same compound?
Answer: Its IC50 is 2.04 nM.

Question: And the IC50 (second compound 10 µM)?
Answer: The IC50 was under 0.316 nM.

Question: What about the viability, T/C [1] of the same compound?
Answer: Its viability, T/C is 106%.

Question: And the viability, T/C [2]?
Answer: The viability, T/C was 90.3%.

Question: And the viability, T/C [3]?
Answer: Its viability, T/C is 101%.

Question: What about the viability, T/C [4] of the same compound?
Answer: Its viability, T/C is 101%.

Question: What about the viability, T/C [5] of the same compound?
Answer: The viability, T/C was 73.5%.

Question: And the viability, T/C [6]?
Answer: The viability, T/C was 21.5%.

Question: What about the viability, T/C [7] of the same compound?
Answer: Its viability, T/C is 101%.

Question: And the viability, T/C [8]?
Answer: Its viability, T/C is 107%.

Question: And the viability, T/C [9]?
Answer: The viability, T/C was 99.1%.

Question: What about the viability, T/C [10] of the same compound?
Answer: The viability, T/C was 87.1%.

Question: And the viability, T/C [11]?
Answer: Its viability, T/C is 72.1%.

Question: And the viability, T/C [12]?
Answer: Its viability, T/C is 24.1%.

Question: What about the viability, T/C [13] of the same compound?
Answer: The viability, T/C was 114%.

Question: What about the viability, T/C [14] of the same compound?
Answer: Its viability, T/C is 107%.

Question: What about the viability, T/C [15] of the same compound?
Answer: The viability, T/C was 79.9%.

Question: What about the viability, T/C [16] of the same compound?
Answer: The viability, T/C was 82.4%.

Question: What about the viability, T/C [17] of the same compound?
Answer: Its viability, T/C is 63.7%.

Question: What about the viability, T/C [18] of the same compound?
Answer: The viability, T/C was 14.7%.

Question: And the viability, T/C [19]?
Answer: Its viability, T/C is 113%.

Question: And the viability, T/C [20]?
Answer: The viability, T/C was 97.5%.

Question: What about the viability, T/C [21] of the same compound?
Answer: Its viability, T/C is 87.7%.

Question: What about the viability, T/C [22] of the same compound?
Answer: Its viability, T/C is 76.8%.

Question: What about the viability, T/C [23] of the same compound?
Answer: Its viability, T/C is 41%.

Question: What about the viability, T/C [24] of the same compound?
Answer: The viability, T/C was 6.83%.

Question: And the viability, T/C [25]?
Answer: Its viability, T/C is 62.1%.

Question: What about the viability, T/C [26] of the same compound?
Answer: Its viability, T/C is 56.8%.

Question: And the viability, T/C [27]?
Answer: Its viability, T/C is 46.2%.

Question: What about the viability, T/C [28] of the same compound?
Answer: Its viability, T/C is 29%.

Question: And the viability, T/C [29]?
Answer: The viability, T/C was 14.5%.

Question: And the viability, T/C [30]?
Answer: The viability, T/C was 3.88%.

Question: What about the viability, T/C [31] of the same compound?
Answer: Its viability, T/C is 17.3%.

Question: What about the viability, T/C [32] of the same compound?
Answer: Its viability, T/C is 16.8%.

Question: And the viability, T/C [33]?
Answer: Its viability, T/C is 10.8%.

Question: What about the viability, T/C [34] of the same compound?
Answer: The viability, T/C was 13.1%.

Question: And the viability, T/C [35]?
Answer: The viability, T/C was 6.47%.

Question: And the viability, T/C [36]?
Answer: Its viability, T/C is 2.92%.
